From patent US6780996B2, “Process for the preparation of 7-substituted-3 quinolinecarbonitriles” (Wyeth Holdings Corporation, priority 2002, dated 2004)

COc1cc2c(Nc3ccc(C)cc3C)c(C#N)cnc2cc1OCCCC1CCN(C)CC1 [Example 49, 4-[(2,4-Dimethylphenyl)amino]-6-methoxy-7-[3(1-methylpiperidine-4-yl)propoxy]quinoline-3-carbonitrile]
melting point: 159 to 162 °C
